Results on 20 compounds are retold here after ChEMBL document CHEMBL2331477, “Effect of helical conformation and side chain structure on γ-secretase inhibition by β-peptide foldamers: insight into substrate recognition” (J Med Chem, 2013).

Structures are written as SMILES. Active and inactive are the calls of the source. The calls are words filed in the database; no cut-off is given here.

Test [1] concerns the target T1, Gamma-secretase (Homo sapiens) (UniProt Q96BI3+Q9NZ42+Q8WW43+P49768+Q92542+P49810). Nature of the test: Inhibition of gamma-secretase (unknown origin) expressed in N2a NL/N cells coexpressing betaAPPNL and NotchdeltaE assessed as Abeta42 secretion at 100 nM by ELISA. Format: cell-based.
In test [2] the target is T1, Gamma-secretase (Homo sapiens). As to the kind of experiment: Inhibition of gamma-secretase (unknown origin) expressed in N2a NL/N cells coexpressing betaAPPNL and NotchdeltaE assessed as Abeta40 secretion at 100 nM by ELISA. Format: cell-based.

Take `CC(=O)N[C@H]1CCC[C@@H]1C(=O)N[C@H]1CCC[C@@H]1C(=O)N[C@H]1CCC[C@@H]1C(=O)N[C@H]1CCC[C@@H]1C(=O)N[C@H]1CCC[C@@H]1C(=O)N[C@H](CC(=O)N[C@H]1CCC[C@@H]1C(=O)N[C@H]1CCC[C@@H]1C(=O)N[C@H]1CCC[C@@H]1C(=O)N[C@H]1CCC[C@@H]1C(=O)N[C@H]1CCC[C@@H]1C(=O)N[C@H]1CCC[C@@H]1C(N)=O)Cc1ccc(O)cc1`: the inhibition entry in test [1] and in test [2] was “inactive” each time.

`CC(=O)N[C@H]1CCC[C@@H]1C(=O)N[C@H]1CCC[C@@H]1C(=O)N[C@H]1CCC[C@@H]1C(=O)N[C@H]1CCC[C@@H]1C(=O)N[C@H]1CCC[C@@H]1C(=O)N[C@H]1CCC[C@@H]1C(=O)N[C@H]1CCC[C@@H]1C(=O)N[C@H]1CCC[C@@H]1C(=O)N[C@H](CC(=O)N[C@H]1CCC[C@@H]1C(=O)N[C@H]1CCC[C@@H]1C(=O)N[C@H]1CCC[C@@H]1C(N)=O)CC(C)C`: the inhibition result in test [1] and in test [2] was “inactive” each time.

Turning to `CC(=O)N[C@H]1CCC[C@@H]1C(=O)N[C@H]1CCC[C@@H]1C(=O)N[C@H]1CCC[C@@H]1C(=O)N[C@H]1CCC[C@@H]1C(=O)N[C@H]1CCC[C@@H]1C(=O)N[C@@H](CCCCN)CC(=O)N[C@H]1CCC[C@@H]1C(=O)N[C@H]1CCC[C@@H]1C(=O)N[C@H]1CCC[C@@H]1C(=O)N[C@H]1CCC[C@@H]1C(=O)N[C@H]1CCC[C@@H]1C(=O)N[C@H]1CCC[C@@H]1C(N)=O`, the inhibition result in test [1] and in test [2] was “inactive” throughout.

Turning to `CC(=O)N[C@H]1CCC[C@@H]1C(=O)N[C@H]1CCC[C@@H]1C(=O)N[C@@H](CCC(N)=O)CC(=O)N[C@H]1CCC[C@@H]1C(=O)N[C@H]1CCC[C@@H]1C(=O)N[C@H]1CCC[C@@H]1C(=O)N[C@H]1CCC[C@@H]1C(=O)N[C@H]1CCC[C@@H]1C(=O)N[C@H]1CCC[C@@H]1C(=O)N[C@H]1CCC[C@@H]1C(=O)N[C@H]1CCC[C@@H]1C(=O)N[C@H]1CCC[C@@H]1C(N)=O`, the inhibition result in test [1] and in test [2] was “Active” throughout.

For the compound `CC(=O)N[C@H]1CCC[C@@H]1C(=O)N[C@H]1CCC[C@@H]1C(=O)N[C@@H](CC(=O)N[C@H]1CCC[C@@H]1C(=O)N[C@H]1CCC[C@@H]1C(=O)N[C@H]1CCC[C@@H]1C(=O)N[C@H]1CCC[C@@H]1C(=O)N[C@H]1CCC[C@@H]1C(=O)N[C@H]1CCC[C@@H]1C(=O)N[C@H]1CCC[C@@H]1C(=O)N[C@H]1CCC[C@@H]1C(=O)N[C@H]1CCC[C@@H]1C(N)=O)[C@@H](C)O`, the inhibition result in test [1] and in test [2] was “inactive” each time.

Turning to `CC(=O)N[C@H]1CCC[C@@H]1C(=O)N[C@H]1CCC[C@@H]1C(=O)N[C@@H](CCC(=O)O)CC(=O)N[C@H]1CCC[C@@H]1C(=O)N[C@H]1CCC[C@@H]1C(=O)N[C@H]1CCC[C@@H]1C(=O)N[C@H]1CCC[C@@H]1C(=O)N[C@H]1CCC[C@@H]1C(=O)N[C@H]1CCC[C@@H]1C(=O)N[C@H]1CCC[C@@H]1C(=O)N[C@H]1CCC[C@@H]1C(=O)N[C@H]1CCC[C@@H]1C(N)=O`, the inhibition result in test [1] and in test [2] was “Active” in each case.

Take `CC(=O)N[C@H]1CCC[C@@H]1C(=O)N[C@H]1CCC[C@@H]1C(=O)N[C@@H](CCCCN)CC(=O)N[C@H]1CCC[C@@H]1C(=O)N[C@H]1CCC[C@@H]1C(=O)N[C@H]1CCC[C@@H]1C(=O)N[C@H]1CCC[C@@H]1C(=O)N[C@H]1CCC[C@@H]1C(=O)N[C@H]1CCC[C@@H]1C(=O)N[C@H]1CCC[C@@H]1C(=O)N[C@H]1CCC[C@@H]1C(=O)N[C@H]1CCC[C@@H]1C(N)=O`: the inhibition result in test [1] and in test [2] was “Active” in each case.

`CC(=O)N[C@H]1CCC[C@@H]1C(=O)N[C@H]1CCC[C@@H]1C(=O)N[C@@H](CS)CC(=O)N[C@H]1CCC[C@@H]1C(=O)N[C@H]1CCC[C@@H]1C(=O)N[C@H]1CCC[C@@H]1C(=O)N[C@H]1CCC[C@@H]1C(=O)N[C@H]1CCC[C@@H]1C(=O)N[C@H]1CCC[C@@H]1C(=O)N[C@H]1CCC[C@@H]1C(=O)N[C@H]1CCC[C@@H]1C(=O)N[C@H]1CCC[C@@H]1C(N)=O`: the inhibition entry in test [1] and in test [2] was “Active” throughout.

With `CC(=O)N[C@H]1CCC[C@@H]1C(=O)N[C@H]1CCC[C@@H]1C(=O)N[C@H]1CCC[C@@H]1C(=O)N[C@H]1CCC[C@@H]1C(=O)N[C@H]1CCC[C@@H]1C(=O)N[C@H]1CCC[C@@H]1C(=O)N[C@H]1CCC[C@@H]1C(=O)N[C@H]1CCC[C@@H]1C(=O)N[C@@H](CCC(N)=O)CC(=O)N[C@H]1CCC[C@@H]1C(=O)N[C@H]1CCC[C@@H]1C(=O)N[C@H]1CCC[C@@H]1C(N)=O`, the inhibition result in test [1] and in test [2] was “inactive” throughout.

Consider `CC(=O)N[C@H]1CCC[C@@H]1C(=O)N[C@H]1CCC[C@@H]1C(=O)N[C@H]1CCC[C@@H]1C(=O)N[C@H]1CCC[C@@H]1C(=O)N[C@H]1CCC[C@@H]1C(=O)N[C@@H](CCC(=O)O)CC(=O)N[C@H]1CCC[C@@H]1C(=O)N[C@H]1CCC[C@@H]1C(=O)N[C@H]1CCC[C@@H]1C(=O)N[C@H]1CCC[C@@H]1C(=O)N[C@H]1CCC[C@@H]1C(=O)N[C@H]1CCC[C@@H]1C(N)=O`, for which the inhibition result in test [1] and in test [2] was “inactive” each time.

As to `CC(=O)N[C@H]1CCC[C@@H]1C(=O)N[C@H]1CCC[C@@H]1C(=O)N[C@H]1CCC[C@@H]1C(=O)N[C@H]1CCC[C@@H]1C(=O)N[C@H]1CCC[C@@H]1C(=O)N[C@@H](CCC(N)=O)CC(=O)N[C@H]1CCC[C@@H]1C(=O)N[C@H]1CCC[C@@H]1C(=O)N[C@H]1CCC[C@@H]1C(=O)N[C@H]1CCC[C@@H]1C(=O)N[C@H]1CCC[C@@H]1C(=O)N[C@H]1CCC[C@@H]1C(N)=O`, the inhibition entry in test [1] and in test [2] was “inactive” each time.

`CC(=O)N[C@H]1CCC[C@@H]1C(=O)N[C@H]1CCC[C@@H]1C(=O)N[C@H](CC(=O)N[C@H]1CCC[C@@H]1C(=O)N[C@H]1CCC[C@@H]1C(=O)N[C@H]1CCC[C@@H]1C(=O)N[C@H]1CCC[C@@H]1C(=O)N[C@H]1CCC[C@@H]1C(=O)N[C@H]1CCC[C@@H]1C(=O)N[C@H]1CCC[C@@H]1C(=O)N[C@H]1CCC[C@@H]1C(=O)N[C@H]1CCC[C@@H]1C(N)=O)Cc1ccc(O)cc1`: the inhibition entry in test [1] and in test [2] was “inactive” in each case.

`CC(=O)N[C@H]1CCC[C@@H]1C(=O)N[C@H]1CCC[C@@H]1C(=O)N[C@H]1CCC[C@@H]1C(=O)N[C@H]1CCC[C@@H]1C(=O)N[C@H]1CCC[C@@H]1C(=O)N[C@H]1CCC[C@@H]1C(=O)N[C@H]1CCC[C@@H]1C(=O)N[C@H]1CCC[C@@H]1C(=O)N[C@@H](CC(N)=O)CC(=O)N[C@H]1CCC[C@@H]1C(=O)N[C@H]1CCC[C@@H]1C(=O)N[C@H]1CCC[C@@H]1C(N)=O`: the inhibition result in test [1] and in test [2] was “inactive” in each case.

For the compound `CC(=O)N[C@H]1CCC[C@@H]1C(=O)N[C@H]1CCC[C@@H]1C(=O)N[C@H]1CCC[C@@H]1C(=O)N[C@H]1CCC[C@@H]1C(=O)N[C@H]1CCC[C@@H]1C(=O)N[C@H]1CCC[C@@H]1C(=O)N[C@H]1CCC[C@@H]1C(=O)N[C@H]1CCC[C@@H]1C(=O)N[C@H](CC(=O)N[C@H]1CCC[C@@H]1C(=O)N[C@H]1CCC[C@@H]1C(=O)N[C@H]1CCC[C@@H]1C(N)=O)Cc1ccc(O)cc1`, the inhibition entry in test [1] and in test [2] was “inactive” throughout.

For the compound `CC(=O)N[C@H]1CCC[C@@H]1C(=O)N[C@H]1CCC[C@@H]1C(=O)N[C@H]1COC[C@@H]1C(=O)N[C@H]1CCC[C@@H]1C(=O)N[C@H]1CCC[C@@H]1C(=O)N[C@H]1CCC[C@@H]1C(=O)N[C@H]1CCC[C@@H]1C(=O)N[C@H]1CCC[C@@H]1C(=O)N[C@H]1CCC[C@@H]1C(=O)N[C@H]1CCC[C@@H]1C(=O)N[C@H]1CCC[C@@H]1C(=O)N[C@H]1CCC[C@@H]1C(N)=O`, the inhibition entry in test [1] and in test [2] was “Active” in each case.

For the compound `CC(=O)N[C@H]1CCC[C@@H]1C(=O)N[C@H]1CCC[C@@H]1C(=O)N[C@H]1CCC[C@@H]1C(=O)N[C@H]1CCC[C@@H]1C(=O)N[C@H]1CCC[C@@H]1C(=O)N[C@H]1CCC[C@@H]1C(=O)N[C@H]1CCC[C@@H]1C(=O)N[C@H]1CCC[C@@H]1C(=O)N[C@@H](CC(=O)N[C@H]1CCC[C@@H]1C(=O)N[C@H]1CCC[C@@H]1C(=O)N[C@H]1CCC[C@@H]1C(N)=O)[C@@H](C)O`, the inhibition entry in test [1] and in test [2] was “inactive” in each case.

On to `CC(=O)N[C@H]1CCC[C@@H]1C(=O)N[C@H]1CCC[C@@H]1C(=O)N[C@H](CC(=O)N[C@H]1CCC[C@@H]1C(=O)N[C@H]1CCC[C@@H]1C(=O)N[C@H]1CCC[C@@H]1C(=O)N[C@H]1CCC[C@@H]1C(=O)N[C@H]1CCC[C@@H]1C(=O)N[C@H]1CCC[C@@H]1C(=O)N[C@H]1CCC[C@@H]1C(=O)N[C@H]1CCC[C@@H]1C(=O)N[C@H]1CCC[C@@H]1C(N)=O)CC(C)C`, for which the inhibition entry in test [1] and in test [2] was “Active” in each case.

For the compound `CC(=O)N[C@H]1CCC[C@@H]1C(=O)N[C@H]1CCC[C@@H]1C(=O)N[C@H]1CCC[C@@H]1C(=O)N[C@H]1CCC[C@@H]1C(=O)N[C@H]1CCC[C@@H]1C(=O)N[C@H](CC(=O)N[C@H]1CCC[C@@H]1C(=O)N[C@H]1CCC[C@@H]1C(=O)N[C@H]1CCC[C@@H]1C(=O)N[C@H]1CCC[C@@H]1C(=O)N[C@H]1CCC[C@@H]1C(=O)N[C@H]1CCC[C@@H]1C(N)=O)CC(C)C`, the inhibition entry in test [1] and in test [2] was “inactive” in each case.

For the compound `CC(=O)N[C@H]1CCC[C@@H]1C(=O)N[C@H]1CCC[C@@H]1C(=O)N[C@H]1CCC[C@@H]1C(=O)N[C@H]1CCC[C@@H]1C(=O)N[C@H]1CCC[C@@H]1C(=O)N[C@@H](CC(N)=O)CC(=O)N[C@H]1CCC[C@@H]1C(=O)N[C@H]1CCC[C@@H]1C(=O)N[C@H]1CCC[C@@H]1C(=O)N[C@H]1CCC[C@@H]1C(=O)N[C@H]1CCC[C@@H]1C(=O)N[C@H]1CCC[C@@H]1C(N)=O`, the inhibition entry in test [1] and in test [2] was “inactive” in each case.

For `CC(=O)N[C@H]1CCC[C@@H]1C(=O)N[C@H]1CCC[C@@H]1C(=O)N[C@H]1CCC[C@@H]1C(=O)N[C@H]1CCC[C@@H]1C(=O)N[C@H]1CCC[C@@H]1C(=O)N[C@H](CO)CC(=O)N[C@H]1CCC[C@@H]1C(=O)N[C@H]1CCC[C@@H]1C(=O)N[C@H]1CCC[C@@H]1C(=O)N[C@H]1CCC[C@@H]1C(=O)N[C@H]1CCC[C@@H]1C(=O)N[C@H]1CCC[C@@H]1C(N)=O`, the inhibition entry in test [1] and in test [2] was “inactive” throughout.
